One compound from article PMC6904270, “A High-Throughput Assay for Monitoring Ubiquitination in Real Time” (Frontiers in Chemistry, 2019) can be followed below.

As usually defined, the IC50 is the point on the concentration scale where inhibition reaches its midpoint. The low end stands for greater potency in that assay, the high end for weaker potency in that assay.

In the experiment the target is T1, E1 ubiquitin-activating enzyme (UBE1) (Homo sapiens, UniProt P22314).
T1 construct: gene UBA1
T1 sequence (P22314 2-1058): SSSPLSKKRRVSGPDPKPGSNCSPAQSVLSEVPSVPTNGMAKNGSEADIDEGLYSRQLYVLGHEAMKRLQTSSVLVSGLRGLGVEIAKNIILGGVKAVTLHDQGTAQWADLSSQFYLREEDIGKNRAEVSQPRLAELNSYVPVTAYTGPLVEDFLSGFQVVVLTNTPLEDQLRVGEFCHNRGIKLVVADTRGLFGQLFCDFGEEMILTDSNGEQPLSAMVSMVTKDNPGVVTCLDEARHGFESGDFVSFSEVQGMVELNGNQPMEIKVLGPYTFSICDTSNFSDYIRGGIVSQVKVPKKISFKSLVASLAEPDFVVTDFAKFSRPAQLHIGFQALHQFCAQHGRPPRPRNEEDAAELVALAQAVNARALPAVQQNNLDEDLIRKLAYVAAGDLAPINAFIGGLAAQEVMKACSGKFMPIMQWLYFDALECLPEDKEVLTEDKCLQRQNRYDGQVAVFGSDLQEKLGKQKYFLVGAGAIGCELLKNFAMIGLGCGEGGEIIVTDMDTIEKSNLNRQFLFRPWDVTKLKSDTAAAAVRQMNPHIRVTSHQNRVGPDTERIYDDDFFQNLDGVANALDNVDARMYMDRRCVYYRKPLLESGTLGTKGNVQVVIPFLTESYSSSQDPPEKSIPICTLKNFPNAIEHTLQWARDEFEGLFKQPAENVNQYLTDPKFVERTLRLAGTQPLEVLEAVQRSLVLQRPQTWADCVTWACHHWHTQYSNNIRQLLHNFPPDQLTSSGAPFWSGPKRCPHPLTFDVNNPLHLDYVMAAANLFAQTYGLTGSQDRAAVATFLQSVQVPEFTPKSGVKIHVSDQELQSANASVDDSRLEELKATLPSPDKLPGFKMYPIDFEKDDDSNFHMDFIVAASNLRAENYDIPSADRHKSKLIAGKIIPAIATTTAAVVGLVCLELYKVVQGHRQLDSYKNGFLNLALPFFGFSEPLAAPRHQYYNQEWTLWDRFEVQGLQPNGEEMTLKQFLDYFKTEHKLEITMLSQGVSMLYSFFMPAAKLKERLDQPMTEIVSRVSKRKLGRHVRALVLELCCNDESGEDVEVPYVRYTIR
The experiment can be described thus: fluorescence polarization of E1~TAMRA-Ub complex formation with purified E1 (UbiReal), endpoint dose-response. The format is biochemical. Background: In fluorescence polarisation assays a small probe gives low polarisation when free and higher when bound to something large.

Take `CCOC(=O)c1ccc(N2NC(=O)C(=Cc3ccc([N+](=O)[O-])o3)C2=O)cc1` [PYR-41]: it took 9.15 µM to reach half-maximal inhibition (IC50).
